Results on ten compounds are retold here after ChEMBL document CHEMBL3045337, “A Comparative Study: Evaluation of Antioxidant Activity of Melatonin and Some Indole Derivatives” (Med Chem Res, 2005).

Assay [1] deals with Liver. The assay is described as follows: Antioxidant activity in Rattus norvegicus (rat) liver homogenate assessed as inhibition of lipid peroxidation measuring TBARS production at 10 '-3 M after 1 hr by spectrophotometry relative to control. Type of assay: functional, tissue-based.
A short description of assay [2]: Antioxidant activity assessed as superoxide radical scavenging activity at 10 '-3 M measured for 3 min by spectrophotometry relative to control. It is filed as functional.
Assay [3] relates to Liver. The assay is described as follows: Antioxidant activity in Rattus norvegicus (rat) liver homogenate assessed as inhibition of lipid peroxidation measuring TBARS production at 10 '-4 M after 1 hr by spectrophotometry relative to control. It is filed as functional, tissue-based.
A short description of assay [4]: Antioxidant activity assessed as superoxide radical scavenging activity at 10 '-4 M measured for 3 min by spectrophotometry relative to control. It is filed as functional.

The inhibition is the drop in the measured response relative to a control, in per cent. Take `COc1ccc2[nH]cc(CCNC(C)=O)c2c1`: in the assay on Liver [1], the inhibition came to 28%. For the same compound, the Activity in assay [2] turned out to be 84%. Moreover, in the assay with Liver [3], the TBARS production (% of control) came to 93%. In assay [4], the Superoxide level, % of control stood at 90%.
The like results for `COC(=O)CCc1c[nH]c2ccccc12` were, in that order, 56%, 70%, 114% and 54%.
The like results for `CCN(CC)CCNC(=O)CCc1c[nH]c2ccccc12` were, in that order, 26%, 91%, 51% and 102%.
For the compound `CN(C)CCCNC(=O)CCc1c[nH]c2ccccc12`, the inhibition in the assay with Liver [1] was 27%. The Activity in assay [2] stood at 98%. Moreover, the TBARS production (% of control) with Liver [3] came out at 102%. In addition, in assay [4], the Superoxide level, % of control turned out to be 98%.
`CN(C)CCNC(=O)CCc1c[nH]c2ccccc12`: the inhibition with Liver [1] was found to be 28%. Moreover, the Activity in assay [2] is 83%. The TBARS production (% of control) in the assay on Liver [3] turned out to be 101%. The Superoxide level, % of control in assay [4] stood at 94%.
The like results for `CCN(CC)CCCNC(=O)CCc1c[nH]c2ccccc12` were, in that order, 31%, 90%, 96% and 108%.
For `CCCCNC(=O)CCc1c[nH]c2ccccc12`, the inhibition in the assay on Liver [1] amounted to 28%. The Activity in assay [2] was determined as 85%. Also, in the assay on Liver [3], the TBARS production (% of control) worked out at 100%. Further, the Superoxide level, % of control in assay [4] was 104%.
The like results for `CCCNC(=O)CCc1c[nH]c2ccccc12` were, in that order, 28%, 94%, 102% and 100%.
Take `CCCCCNC(=O)CCc1c[nH]c2ccccc12`: the inhibition with Liver [1] was determined as 25%. In assay [2], the Activity is 87%. Besides, in the assay on Liver [3], the TBARS production (% of control) was 94%. Moreover, in assay [4], the Superoxide level, % of control came to 103%.
The like results for `Cc1c(C)c2c(c(C)c1O)CC[C@@](C)(CCC[C@H](C)CCC[C@H](C)CCCC(C)C)O2` were, in that order, 27%, 14%, 46% and 83%.
